In patent publication US7169756B2, “Streptogramin antibiotics” (priority 2005, dated 2007):
Bridge positions count the residues as written; N and C are the ends. Square brackets hold non-standard residues; d marks the D form. Peptide text beside a SMILES is read from it. * marks the point of attachment. Picolinoyl(3-OH) = O=C(c1ncccc1O)*; Phg = N[CH](C(=O)O)c1ccccc1; Abu = CC[CH](N)C(=O)O; Dap = NC[CH](N)C(=O)O

Assays:
[1] = tested on: E. coli BAS901/pUC19; test: disk assay, zone of growth inhibition; format: cell-based, Escherichia coli
From the text: (§1) A hyperpermeable E. coli strain, E. coli BAS901, harboring a plasmid constitutively expressing Vgb was created for in vivo studies. The plasmids pVGB, described previously in [14], and […] were digested with Xbal and BamHI, to yield an approximately 1 kb fragment containing a ribosomal binding site upstream of vgb, and linearized pUC19 backbone, respectively. The vgb fragment was then subcloned into the linearized pUC19 backbone downstream of pLac yielding pUC19-VGB. Both pUC19-VGB and pUC19 were transformed E. coli BAS901.
(§2) The antibiotic activity of the peptides synthesized in this study was initially assayed using a disk assay where samples were applied to sterile paper disks placed on a fresh lawn of bacterial culture on appropriate agar plates as required by the organism. These were then incubated for 16 hr at 37° C. and the zone of growth inhibition surrounding the disks recorded. For quantitative assessment of antibiotic activity in liquid culture, the minimal inhibitory concentration (MIC) of peptides was determined by serial dilution studies. The peptides and standard antibiotics were dissolved in DMSO and the final concentration of DMSO in the liquid cultures was 5%. Both S. aureus RN4220 and E. coli BAS901 were able to grow efficiently at this level of DMSO.
(§3) Crude material from the initial synthesis reactions was used to test the potential of the analogues as antibiotics in susceptibility assays where a solution of the compound was placed on a paper disk on a lawn of bacteria. As described above, E. coli BAS901 is deficient in the Imp/OstA protein, an outer membrane protein, involved in cell envelope biogenesis (1, 5). […] The antibiotic activity of the peptides synthesized in this study was initially assayed using a disk assay where samples were applied to sterile paper disks placed on a fresh lawn of bacterial culture on Tryptic Soya, Luria Broth, or Brain Heart Infusion Agar plates. These were then incubated for 16 hrs at 37° C. and the zone of growth inhibition surrounding the disks recorded.

[2] = tested on: E. coli BAS901/pUCVgb; test: disk assay, zone of growth inhibition; format: cell-based, Escherichia coli; details: Vgb constitutively expressed
From the text: as §1, §2, §3

[3] = tested on: in vitro translation; test: In Vitro Translation Assay; format: biochemical; details: FIG. 6; 15 min preincubation, 1 hr at 37° C., 5% DMSO; concentration not given
Description: Inhibition of translation was monitored using an ActivePro In Vitro Translation Kit from Ambion. Briefly, a reaction mixture was prepared as per the manufacturer's instructions that contained all of the constituents necessary (including [^35S]-methionine) except for DNA template. These mixtures were then preincubated for 15 min at room temperature in the presence or absence of various antibiotics. Subsequent to the preincubation period, a control template containing a chloramphenicol acetyltransferase gene under control of a bacteriophage T7 promoter was added and the reaction carried out for 1 hr at 37° C. Due to the insoluble nature of some of the antibiotics, the final DMSO concentration in each reaction including controls was maintained at 5% (v/v). Aliquots were taken after 1 hr, and separated on SDS polyacrylamide gels. The efficiency of translation of ^35S-labeled […] was analyzed and quantified using a Typhoon 9200 variable mode imager (Image-Quant 5.2 software).

[4] = tested on: Human red blood cells; test: Hemolysis Assay; format: cell-based; details: 3 and 9 hr at 37° C., A412 of supernatant, gramicidin 30 μg/ml
Description: Human red blood cells were freshly harvested, washed with 0.85% saline solution with 5 mM EDTA and resuspended in the same solution to an A412 of 0.6. The hemolysis assay was performed in 1.5 ml Eppendorf tubes with the addition of either 5 in DMSO, saline, gramicidin (final concentration 30 μg/ml), or DMSO (5% final), for both 3 and 9 hr at 37° C. with occasion gentle mixing. The mixtures were then centrifuged and the A412 of the supernatant measured.

Row | Compound | inhibition of in vitro translation [3] | further results
1 | CCC1NC(=O)C(NC(=O)c2ncccc2O)CNC(=O)C(c2ccccc2)NC(=O)C2CCCN2C(=O)C(Cc2ccccc2)NC(=O)C2CCCN2C1=O (stereo not drawn) [Compound 8] ({Picolinoyl(3-OH)}-[Dap][Abu]PFP[Phg]; lactam 1-C; configuration not given here) | – | Zone of Inhibition [1]: no antibacterial activity and n.i.; Zone of Inhibition [2]: n.i.
2 | O=C(N[C@H](CO)[C@H](O)c1ccc([N+](=O)[O-])cc1)C(Cl)Cl [chloramphenicol] | did block | –
3 | CCN(CC)CCS(=O)(=O)[C@@H]1CCN2C(=O)c3coc(n3)CC(=O)C[C@H](O)/C=C(C)/C=C/CNC(=O)/C=C/[C@@H](C)[C@@H](C(C)C)OC(=O)[C@@H]12 [dalfopristin] | did block | –
4 | CC[C@H]1OC(=O)[C@H](C)[C@@H](O[C@H]2C[C@@](C)(OC)[C@@H](O)[C@H](C)O2)[C@H](C)[C@@H](O[C@@H]2O[C@H](C)C[C@H](N(C)C)[C@H]2O)[C@](C)(O)C[C@@H](C)C(=O)[C@H](C)[C@@H](O)[C@]1(C)O [erythromycin] | did block | –
5 | gramicidin S | – | hemolytic activity [4]: lysed cells rapidly
